Data published in publication PMC9571290, “Preliminary Structure–Activity Relationship Study of the MMV Pathogen Box Compound MMV675968 (2,4-Diaminoquinazoline) Unveils Novel Inhibitors of Trypanosoma brucei brucei” (Molecules, 2022).
Like-named read-outs stand apart in the source and are kept apart here.

Columns and labels:
Toxoplasma gondii = system: Toxoplasma gondii; parameters: method as in PMID 29133550; conditions: read-out: IC50 against Toxoplasma gondii; cited from earlier work
Cryptosporidium parvum = system: Cryptosporidium parvum; parameters: method as in PMID 11709300; conditions: read-out: IC50 phenotypic whole parasite testing; cited from earlier work
in vitro = conditions: African green monkey
Experimental: (§1) The resulting pellet was resuspended and counted in a Neubauer chamber in the presence of trypan blue to exclude nonviable cells colored in blue. Once the cell load was estimated, they were either used for the next passage in a new flask or processed for the cytotoxicity assay.
(§2) Briefly, Vero cells at a density of 10^4 cells per well were plated in 100 µL of complete DMEM and incubated overnight to allow cell attachment. Plates were then controlled under an inverted fluorescence microscope (Lumascope LS520) to ensure adherence, sterility and cell integrity. Thereafter, culture medium from each well was carefully emptied, and plates were filled with 90 µL of fresh complete medium followed by the addition of 10 µL of serial 5-fold dilutions of compound solutions. […] Fluorescence was then read using a Magelan Infinite M200 fluorescence multiwell plate reader (Tecan) with excitation and emission wavelengths of 530 and 590 nm, respectively. The percentage of cell viability was calculated from readouts, and the median cytotoxic concentration (CC50) for each compound was deduced from concentration–response curves using GraphPad Prism 8.0 software as described above. Selectivity indexes were then determined for each test substance as follows: SI = CC50(Vero cells)/IC50(T. brucei brucei).

DHFR [1] = system: DHFR; parameters: method as in PMID 7799402; conditions: read-out: IC50 DHFR Toxoplasma gondii; cited from earlier work
[2] = system: bloodstream forms of Trypanosoma brucei brucei; experiment: resazurin-based antitrypanosomal inhibition assay; type: cell-based
Experimental: Parasites were axenically cultivated in sterile vented flasks containing complete Hirumi’s modified Iscove’s medium 9 (HMI-9) [500 mL IMDM (Iscove’s modified Dulbecco’s medium) (Gibco, Waltham, MA, USA) supplemented with 10% (v/v) heat-inactivated fetal bovine serum (HIFBS) (Sigma Aldrich), 10% (v/v) serum plus (Sigma Aldrich), HMI-9 supplement (1 mM hypoxanthine, 0.16 mM thymidine, 50 µM bathocuproine disulfonic acid, 1.5 mM cysteine, 1.25 Mm pyruvic acid, 0.2 mM 2-mercaptoethanol (Sigma Aldrich)), and 1% (v/v) penicillin–streptomycin (Sigma Aldrich) and incubated at 37 °C in a 5% CO2 atmosphere.
The in vitro inhibitory potency of the 400 MMVPB compounds against bloodstream forms of Trypanosoma brucei brucei was evaluated using the resazurin-based inhibition assay as previously described. Briefly, parasites at their mid-logarithmic growth phase were counted, and the cell density was adjusted with fresh complete HMI-9 medium to 2 × 10^5 trypanosomes per mL. Then, 90 µL of parasite suspension was then distributed into the wells of 96-well flat-bottomed plates containing 10 µL of compounds for a final test concentration of 10 µM. […] Each assay plate was set up in duplicate and repeated two times. The percent parasite inhibition was determined for each compound based on fluorescence readouts relative to the mean fluorescence of negative control wells.
y = 100/[1+ 10^(logIC50/99-x)H], where H is the hill coefficient or slope factor [60].

DHFR [3] = system: DHFR; parameters: method as in PMID 7799402; conditions: read-out: IC50 DHFR Pneumocystis carinii; cited from earlier work
[4] = system: Cryptosporidium parvum-I DHFR; parameters: method as in PMID 11709300; conditions: in vitro; cited from earlier work
P. falciparum = system: P. falciparum; parameters: method as in PMID 28674055; conditions: cited from earlier work
Vero cells = experiment: cytotoxicity against Vero cells (resazurin viability assay); conditions: read-out: CC50 Vero; Table 2
Experimental: as §1, §2

[5] = system: kinetoplastids (T. brucei brucei and T. brucei rhodesiense); parameters: method as in MMV Pathogen Box supporting information; conditions: against kinetoplastids; ref MMV Pathogen Box supporting information; read-out: Reported IC50; cited from earlier work
T. b. brucei = system: T. b. brucei; parameters: method as in Duffy et al., 13; conditions: ref Duffy et al., 13; read-out: IC50 against T. b. brucei; cited from earlier work
[6] = system: bloodstream form of Trypanosoma brucei brucei; experiment: parasite-killing kinetics and cidal or static effect; type: cell-based; conditions: IC90 and IC99; removal at 4 h (10) or 24 h (7), subculture in inhibitor-free medium
Experimental: Thus, they were selected, and their effect at various concentrations was assessed on the proliferation rate of the bloodstream form of Trypanosoma brucei brucei using microscopic cell count. […] After specified exposure time intervals (0, 4, 8, 12, 24, 30, 36, 48, 60, 72 h), the content of each well was harvested and counted on a Neubauer hemacytometer to determine the number of mobile parasites. The obtained values were used to plot the growth curves as parasite density (cells/mL) versus incubation time using GraphPad Prism 8.0 software.
Therefore, the ability of parasites to recover post exposure to inhibitors 10 and 7 was further evaluated. […] After that, the cells were washed three times with fresh complete medium by centrifugation at 2500 rpm for 7 min. Cell pellets were thereafter resuspended in fresh complete culture medium in a 24-well plate and subcultured under the same conditions for 68 h for compound 10 and 48 h for compound 7 to achieve the complete parasite growth pattern. Thereafter, cells were enumerated using the Neubauer cell counter at each time point. The assay was performed in duplicate, and the mean cell counts were plotted […] against time using GraphPad Prism 8.0 to assess the cidal or static effect of inhibitors.

[7] = ferric ion reducing antioxidant power (FRAP); conditions: Fe^3+-reducing activity
Experimental: Iron is one of the vital elements for all parasites, including trypanosomes, as it plays a key role in pathogenesis and the host immune response. Therefore, iron bioavailability reducing agents to the parasite could be potential candidates for drug development against trypanosomiasis. To this end, we determined the capacity of the test compounds to reduce iron from ferric to ferrous status using the method described by Benzie et al.. Briefly, 25 µL of each compound (7 and 10) was added to 25 µL of a solution of Fe^3+ prepared at 1.2 mg/mL in distilled water in a 96-well microplate. The plate was incubated for 15 min at room temperature in darkness, after which 50 µL of ortho-phenanthroline (0.2% in methanol) was added to achieve final compound concentrations ranging from 400 µM to 0.19 µM. Plates were reincubated for 15 min, and the absorbance was measured at 510 nm. Ascorbic acid was used as a positive control and tested at concentrations ranging from 100 to 0.048 μg/mL. The median reducing concentration (RC50) values of compounds were determined through sigmoidal concentration–response curves using GraphPad Prism version 8.0 software.

[8] = Trypanosoma brucei, Table 4, negative log of IC50 in molar, read-out: pIC50 T. b. b. (converted)

For `COc1ccc(OC)c(NCc2ccc3nc(N)nc(N)c3c2Cl)c1` [Analog 1, 2,4-diamino-5-chloro-6-[(2,5-dimethoxyanilino)methyl]quinazoline], the IC50 (Toxoplasma gondii) is listed as 20 nM, the IC50 (Cryptosporidium parvum) is listed as 200 nM and the CC50 at 48 h (in vitro) is listed as greater than 100000 nM. The IC50 (DHFR [1]) was 30 nM, the IC50 ([2]; Table 4, analogs of MMV675968, solid material, read-out: IC50 ± SD T. b. b.) was 2600 nM and the IC50 ([2]; Trypanosoma brucei, Table 3, MMVPB compounds with known potency against other diseases, read-out: IC50 ± SD T. b. b.) was 2800 ± 70 nM. The IC50 ([2]; Trypanosoma brucei, Table 3, negative log of IC50 in molar, read-out: pIC50 T. b. b. (converted)) was 2820 nM, the IC50 ([2]; Trypanosoma brucei, Table 4, analogs of MMV675968, solid material, read-out: IC50 ± SD T. b. b.) was 2600 to 2800 nM and the IC50 [2, 8] was 2630 nM. The IC50 (DHFR [3]) was 51 nM, the IC50 [4] was 6.5 nM and the IC50 (P. falciparum) was 70 nM.

For `Cc1nn(C)c(C)c1NS(=O)(=O)c1c(Cl)cc(-c2ccnc(N3CCNCC3)c2)cc1Cl` [MMV688180], the CC50 (Vero cells) was greater than 100000 nM, the IC50 ([2]; Table 2, MMVPB compounds with known anti-kinetoplastid activity, read-out: IC50 ± SD T. b. b.) was 2.3 nM and the “pIC50 T. b. b.” value ([2]; Table 2, negative log of IC50 in molar) was 8.64. For the same compound, the IC50 ([2]; given in nM, read-out: IC50 against T. b. brucei) was 2.3 nM, the IC50 [5] was less than 130 nM and the IC50 (T. b. brucei) was 10 nM.

`N=C(N)c1ccc(OCCCCCOc2ccc(C(=N)N)cc2)cc1` [Pentamidine, reference compound] showed a CC50 at 48 h (in vitro) greater than 100000 nM, an IC50 ([2]; Trypanosoma brucei, Table 1, reference drugs included in MMVPB, read-out: IC50 ± SD T. b. b.) of 2 ± 0.3 nM and an IC50 ([2]; Trypanosoma brucei, Table 1, negative log of IC50 in molar, read-out: pIC50 T. b. b. (converted)) of 2 nM. The IC50 [2, 8] was 2.24 nM and the “cidal or static effect after inhibitor removal” value [6] was “static profile”.

With `O=C1O[C@H]([C@@H](O)CO)C(O)=C1O` [ascorbic acid, reference compound] the “median reducing concentration (RC50)” value [7] was 165 µM.
